ChEMBL document CHEMBL4602697 (J Med Chem, 2020)
Each block holds one compound with its values, some of them ahead of it.

How the values were obtained:
[1] = molecular target: Muscarinic acetylcholine receptor M3 (Rattus norvegicus, UniProt P08483); assay: Displacement of [3H]-NMS from Wistar rat salivary gland muscarinic M3 receptor
[2] = molecular target: T1, Muscarinic acetylcholine receptor M2 (Rattus norvegicus, UniProt P10980); assay: Displacement of [3H]-QNB from Wistar rat heart muscarinic M2 receptor
T1 sequence (P10980 whole entry): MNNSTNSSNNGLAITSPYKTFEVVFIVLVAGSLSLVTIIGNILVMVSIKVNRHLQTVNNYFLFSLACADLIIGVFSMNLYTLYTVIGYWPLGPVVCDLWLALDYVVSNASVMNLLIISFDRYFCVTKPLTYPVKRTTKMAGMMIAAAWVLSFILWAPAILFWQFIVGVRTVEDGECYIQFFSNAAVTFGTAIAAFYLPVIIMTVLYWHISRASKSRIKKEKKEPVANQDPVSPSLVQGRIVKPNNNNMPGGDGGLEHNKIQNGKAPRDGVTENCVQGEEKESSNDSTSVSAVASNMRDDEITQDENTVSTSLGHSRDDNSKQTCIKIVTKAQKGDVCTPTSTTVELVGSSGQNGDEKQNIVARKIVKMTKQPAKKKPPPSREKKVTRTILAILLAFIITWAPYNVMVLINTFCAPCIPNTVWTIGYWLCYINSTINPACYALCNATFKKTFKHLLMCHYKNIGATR

[3] = molecular target: T2, Muscarinic acetylcholine receptor M1 (Rattus norvegicus, UniProt P08482); assay: Displacement of [3H]pirenzepin from Wistar rat cortex muscarinic M1 receptor
T2 sequence (P08482 whole entry): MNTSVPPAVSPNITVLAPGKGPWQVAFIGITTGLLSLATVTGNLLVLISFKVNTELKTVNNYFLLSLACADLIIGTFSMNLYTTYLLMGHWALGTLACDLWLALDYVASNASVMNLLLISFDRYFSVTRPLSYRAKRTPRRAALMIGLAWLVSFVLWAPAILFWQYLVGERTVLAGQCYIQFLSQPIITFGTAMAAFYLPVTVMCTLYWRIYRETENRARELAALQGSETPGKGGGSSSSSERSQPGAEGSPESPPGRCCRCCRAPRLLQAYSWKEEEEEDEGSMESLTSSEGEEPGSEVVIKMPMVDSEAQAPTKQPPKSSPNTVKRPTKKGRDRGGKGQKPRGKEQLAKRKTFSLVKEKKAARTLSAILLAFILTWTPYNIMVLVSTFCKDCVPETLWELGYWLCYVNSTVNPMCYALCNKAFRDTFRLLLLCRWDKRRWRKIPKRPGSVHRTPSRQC

[4] = molecular target: Muscarinic receptor M2 and M3 (Rattus norvegicus) (UniProt P08483+P10980); assay: Ratio of Ki for displacement of [3H]-QNB from Wistar rat heart muscarinic M2 receptor to Ki for displacement of [3H]-NMS from Wistar rat salivary gland muscarinic M3 receptor; assay type: protein assay
Sequence of Muscarinic receptor M2 and M3 (Rattus norvegicus) (P08483 whole entry, looked up, one chain of several): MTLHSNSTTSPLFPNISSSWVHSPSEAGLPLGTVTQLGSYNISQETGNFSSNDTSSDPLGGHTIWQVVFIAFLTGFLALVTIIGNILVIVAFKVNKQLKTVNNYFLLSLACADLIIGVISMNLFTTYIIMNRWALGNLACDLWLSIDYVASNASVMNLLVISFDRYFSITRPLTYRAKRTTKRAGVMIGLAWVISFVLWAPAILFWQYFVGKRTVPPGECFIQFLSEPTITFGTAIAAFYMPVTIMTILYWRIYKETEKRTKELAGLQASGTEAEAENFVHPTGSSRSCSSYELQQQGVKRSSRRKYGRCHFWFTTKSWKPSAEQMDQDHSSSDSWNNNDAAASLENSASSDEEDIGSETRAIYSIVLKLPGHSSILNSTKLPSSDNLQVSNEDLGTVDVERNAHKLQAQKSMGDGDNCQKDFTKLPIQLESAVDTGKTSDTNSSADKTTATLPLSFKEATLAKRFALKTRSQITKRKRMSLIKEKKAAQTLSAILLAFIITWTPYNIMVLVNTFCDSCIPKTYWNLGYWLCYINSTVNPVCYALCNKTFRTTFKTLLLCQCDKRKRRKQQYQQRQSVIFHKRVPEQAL

Rattus norvegicus = species on record: Rattus norvegicus; assay: Ratio of Ki for displacement of [3H]pirenzepin from Wistar rat cortex muscarinic M1 receptor to Ki for displacement of [3H]-NMS from Wistar rat salivary gland muscarinic M3 receptor
[5] = Permeability across basolateral to apical side in human Caco2 cells coexpressing Pgp at 5 uM in presence of P-gp inhibitor valspodar measured for 3 hrs by UPLC/MS analysis; assay type: ADME, cell-based; conditions: caco-2, 3 h
[6] = Permeability across apical to basolateral side in human Caco2 cells coexpressing Pgp at 5 uM measured for 3 hrs by UPLC/MS analysis relative to control; assay type: ADME, cell-based; conditions: caco-2, 3 h
[7] = Permeability across basolateral to apical side in human Caco2 cells coexpressing Pgp at 5 uM measured for 3 hrs by UPLC/MS analysis relative to control; assay type: ADME, cell-based; conditions: caco-2, 3 h
[8] = Permeability across apical to basolateral side in human Caco2 cells coexpressing Pgp at 5 uM in presence of P-gp inhibitor valspodar measured for 3 hrs by UPLC/MS analysis; assay type: ADME, cell-based; conditions: caco-2, 3 h
[9] = Metabolic stability in Sprague-Dawley rat liver microsomes assessed as parent compound remaining at 20 uM measured for 120 mins by HPLC/MS analysis relative to control; assay type: ADME, Microsome; conditions: read-out: Stability

Sequence of Muscarinic acetylcholine receptor M3 (P08483 whole entry): as the sequence (P08483 whole entry, looked up, one chain of several) above

Structure (SMILES): O=C(Nc1ccccc1-c1ccccc1)O[C@H]1CN2CCC1CC2
- Ki [1]: 0.47 nM
- Ki [2]: 7.6 nM
- Ki [3]: 0.65 nM

- Ki [1]: 27 nM
- Ki [2]: 270 nM
- Ratio Ki [4]: 10
- Ki [3]: 32 nM
- Ratio Ki (Rattus norvegicus): 1.2
Structure (SMILES): O=C(Nc1ccccc1-c1ccccc1)OC1CCNCC1

- permeability [5]: 10.5%
- permeability [6]: 6.7%
- permeability [7]: 19.9%
- permeability [8]: 10.2%
Structure (SMILES): C[C@H]1O[C@@H](O[C@H]2[C@@H](O)C[C@H](O[C@H]3[C@@H](O)C[C@H](O[C@H]4CC[C@@]5(C)[C@H](CC[C@@H]6[C@@H]5C[C@@H](O)[C@]5(C)[C@@H](C7=CC(=O)OC7)CC[C@]65O)C4)O[C@@H]3C)O[C@@H]2C)C[C@H](O)[C@@H]1O [DIGOXIN]

Structure (SMILES): C[N+]12CCC(CC1)[C@@H](OC(=O)Nc1ccc(F)cc1-c1cccc(Cl)c1)C2
- remaining at 2 h, 20 µM [9]: 65%

Structure (SMILES): C[N+]12CCC(CC1)[C@@H](OC(=O)Nc1ccc(F)cc1-c1ccc(F)c(Cl)c1)C2
- remaining at 2 h, 20 µM [9]: 63%

- remaining at 2 h, 20 µM [9]: 74%
Structure (SMILES): O=C(Nc1ccc(F)cc1-c1ccc(F)c(Cl)c1)OCC1CCNCC1

- remaining at 2 h, 20 µM [9]: 53%
Structure (SMILES): O=C(Nc1ccc(F)cc1-c1cccc(Cl)c1)OCC1CCNCC1
